Where two headings read alike, the source gives them in different places.
Legend:
[1] = tested on: Pseudomonas alcaligenes; assay: Wood preservative efficacy against bacteria and yeasts, tryptose agar plates; type: cell-based; parameters: key: 0 = growth equal to control, 1 = inhibition, 2 = no growth; settings: 100 ppm in tryptose agar
Method: (§1) Compositions were prepared by dissolving the compounds shown in Table 1 in 50% ethanol and further diluting with sterile distilled water. […] After cooling, the medium was inoculated with the bacteria listed below. After sufficient growth of the untreated cultures, the compounds were evaluated using the following rating system: 0=growth equal to control 1=inhibition of growth by the compound 2=no growth under the influence of the compound. In this Table, the higher numbers are the most preferred species. Pseudomonas alcaligenes (gram neg)

[2] = tested on: Enterobacter aerogenes; assay: as above; type: cell-based; parameters: key: 0 = growth equal to control, 1 = inhibition, 2 = no growth; settings: 100 ppm in tryptose agar
Method: as §1, with “Enterobacter aerogenes” for “Pseudomonas alcaligenes”

[3] = tested on: Escherichia coli; assay: as above; type: cell-based; parameters: key: 0 = growth equal to control, 1 = growth inhibited, 2 = no growth; settings: 100 ppm in tryptose agar
Method: as §1, with “Escherichia coli” for “Pseudomonas alcaligenes”, “[…])” for “neg)”

[4] = tested on: Pseudomonas aeruginosa; assay: as above; type: cell-based; parameters: key: 0 = growth equal to control, 1 = growth inhibited, 2 = no growth; settings: 100 ppm in tryptose agar
Method: as §1, with “aeruginosa” for “alcaligenes”

[5] = tested on: Debaryomyces hansenii; assay: as above; type: cell-based; parameters: key: 0 = growth equal to control, 1 = inhibition, 2 = no growth
Method: as §1, with “Debaryomyces hansenii (yeast)” for “Pseudomonas alcaligenes (gram neg)”

[6] = tested on: Streptomyces albus; assay: as above; type: cell-based; parameters: key: 0 = growth equal to control, 1 = inhibition, 2 = no growth; settings: 100 ppm in tryptose agar
Method: as §1, with “Streptomyces albus” for “Pseudomonas alcaligenes”, “pos)” for “neg)”

[7] = tested on: Bacillus cereus mycoides; type: cell-based; parameters: scale not given here
[8] = tested on: Flavobacterium sp.; assay: Wood preservative efficacy against bacteria and yeasts, tryptose agar plates; type: cell-based; parameters: key: 0 = growth equal to control, 1 = growth inhibited, 2 = no growth; settings: 100 ppm in tryptose agar
Method: as §1, with “Flavobacterium sp.” for “Pseudomonas alcaligenes”

[9] = tested on: mixed spore suspension: Aureobasidium pullulans, Aspergillus amstelodami, Ceratocystis pilifera, Cladosporium sp., Penicillium sp., Sclerophomas entoxylina …; assay: Control of molds and sapstain fungi in mini-board test; parameters: key to Surface score of treated mini-boards, 3 week incubation, 1500 ppm / Surface score of treated mini-boards, 3 week incubation, 2500 ppm: 0: Free of fungal growth; 1: Traces of fungal growth; 2: Little fungal growth; 3: Moderate fungal growth; 4: Vigorous to maximum growth (all surfaces covered with fungal growth)
Excerpt: Representative compounds of this invention to be tested, were suspended in an aqueous solution containing 7.5% GENAPOL X 080™ (Hoechst-Celanese Corporation), and 20% propylene glycol monomethyl ether, to prepare the test solutions. […]
Deep frozen boards (300×50×10 mm) of freshly felled sapwood of Pinus sylvestrus (mini-boards) were thawed at room temperature. One half of each mini-board was immersed in a test solution for 20 seconds. The mini-boards were then sprayed with mixed spore suspension containing the following fungi:
Sclerophomas entoxylina, and
and stored in incubation boxes at 25° C. and at 100% relative humidity, for three weeks. For each compound tested, each concentration of test solution was applied to five different mini-boards.
The efficacy of the test compounds was determined by comparing the fungal growth on both the treated and untreated parts of the mini-boards.
The degree of infection was scored according to the following scale:
1=Traces of fungal growth
4=Vigorous to maximum growth (all surfaces covered with fungal growth)

[10] = tested on: blue-stain fungi and molds; assay: Activity against blue-stain fungi and molds on a stick test on vermiculite (paint film); settings: 12 weeks on vermiculite; for Surface score of wooden sticks treated with paint formulation, R rubra (y): R rubra (yeast)
Method: Beech sticks (73×18×2 mm) Fagus sylvatica were painted, allowed to dry, and sterilized by γ-radiation (1.2 mRad). […] The coated sticks prepared above were then dipped in a spore suspension of pure culture of each fungus. Seven sticks each were placed in autoclaved Petri dishes (200 mm in diameter, 30 mm in height) containing 300 ml of vermiculite and 120 ml of water, and incubated for 12 weeks. The surfaces of the sticks were then examined for the growth of fungus and were evaluated according to the following scoring system: 0: No growth 1: […] 2: […] 3: […] 4. […] 5. Growth covering more than 70t of the inoculated test area.

[11] = tested on: mixed spore suspension of blue-stain fungus and molds; assay: Activity against blue-stain fungi and molds in a mold cabinet test (BS3900: Part G6)
Method: Using the methods described in BS3900: Part G6: 1989, British Standard Methods of test for paints, “Assessment of resistance to fungal growth”, representative compounds of this invention were tested for activity against blue-stain fungus and molds in a mold cabinet test. In brief, sticks of Scots pine (Pinus sylvestris) measuring 75×100×10 mm, were painted, allowed to dry, and sterilized by […] (1.2 mRad). […] The sticks were then with each solution. The inoculation consisted of dipping the sticks in a mixed spore suspension, then placing them in a mold chamber and incubating them for 12 weeks. The surfaces were evaluated according the following score system: 0: No growth 1: […] 2: […] 3: […] 4. […] 5. Growth covering more than 70% of the inoculated test area.

## C[S+]1CCON=C1c1ccc(Cl)cc1Cl (stereo not drawn) [Compound 2]
[1]
  Score of bactericidal activity, P. alcalgenes: 0
[2]
  Score of bactericidal activity, E. aerogenes: 0
[3]
  Score of bactericidal activity, E. Coli: 0
[4]
  Score of bactericidal activity, P. aeruginosa: 0
[5]; 10 ppm in tryptose agar
  Score of bactericidal activity, D. hansenii: 2
[5]; 100 ppm in tryptose agar
  Score of bactericidal activity, D. hansenii: 2
[6]
  Score of bactericidal activity, S. albus: 0
[7]; 10 ppm in tryptose agar
  Score of bactericidal activity, B. cereus mycoides: 0
[7]; 100 ppm in tryptose agar
  Score of bactericidal activity, B. cereus mycoides: 2
[8]
  Score of bactericidal activity, Flavobacter: 2

## C[S+]1CCON=C1c1cccc(C(F)(F)F)c1 (stereo not drawn) [Compound 13]
[1]
  Score of bactericidal activity, P. alcalgenes: 0
[2]
  Score of bactericidal activity, E. aerogenes: 0
[3]
  Score of bactericidal activity, E. Coli: 2
[4]
  Score of bactericidal activity, P. aeruginosa: 0
[5]; 10 ppm in tryptose agar
  Score of bactericidal activity, D. hansenii: 2
[5]; 100 ppm in tryptose agar
  Score of bactericidal activity, D. hansenii: 2
[6]
  Score of bactericidal activity, S. albus: 2
[7]; 10 ppm in tryptose agar
  Score of bactericidal activity, B. cereus mycoides: 2
[7]; 100 ppm in tryptose agar
  Score of bactericidal activity, B. cereus mycoides: 2
[8]
  Score of bactericidal activity, Flavobacter: 2

## C[S+]1CCON=C1c1c(Cl)cccc1Cl (stereo not drawn) [Compound 15]
[1]
  Score of bactericidal activity, P. alcalgenes: 0
[2]
  Score of bactericidal activity, E. aerogenes: 0
[3]
  Score of bactericidal activity, E. Coli: 0
[4]
  Score of bactericidal activity, P. aeruginosa: 0
[5]; 10 ppm in tryptose agar
  Score of bactericidal activity, D. hansenii: 0
[5]; 100 ppm in tryptose agar
  Score of bactericidal activity, D. hansenii: 1
[6]
  Score of bactericidal activity, S. albus: 0
[7]; 10 ppm in tryptose agar
  Score of bactericidal activity, B. cereus mycoides: 0
[7]; 100 ppm in tryptose agar
  Score of bactericidal activity, B. cereus mycoides: 1
[8]
  Score of bactericidal activity, Flavobacter: 0

## O=S1(=O)CCON=C1c1cc(Br)cs1 [Compound 42]
[9]; 1500 ppm, 3 week incubation
  Surface score of treated mini-boards, 3 week incubation, 1500 ppm: 0
[9]; 1500 ppm, 6 week incubation
  Surface score of treated mini-boards, 6 week incubation, 1500 ppm: 2.0
[9]; 2500 ppm, 3 week incubation
  Surface score of treated mini-boards, 3 week incubation, 2500 ppm: 0
[9]; 2500 ppm, 6 week incubation
  Surface score of treated mini-boards, 6 week incubation, 2500 ppm: 2.6
[10]; 0.15% a.i. in paint
  Surface score of wooden sticks treated with paint formulation, A. pullulans: 2 (Growth covering between 1 and 10% of the inoculated test area)
  Surface score of wooden sticks treated with paint formulation, A. versicolor: 2 (Growth covering between 1 and 10% of the inoculated test area)
  Surface score of wooden sticks treated with paint formulation, C. cladosporioides: 2 (Growth covering between 1 and 10% of the inoculated test area)
  Surface score of wooden sticks treated with paint formulation, P. purpurogenum: 4 (Growth covering between 30 and 70% of the inoculated test area)
  Surface score of wooden sticks treated with paint formulation, P. violacea: 4 (Growth covering between 30 and 70% of the inoculated test area)
  Surface score of wooden sticks treated with paint formulation, R rubra (y): 3 (Growth covering between 10 and 30% of the inoculated test area)
  Surface score of wooden sticks treated with paint formulation, S. chartarum: 3 (Growth covering between 10 and 30% of the inoculated test area)
  Surface score of wooden sticks treated with paint formulation, U. atrum: 5 (Growth covering more than 70t of the inoculated test area)
[10]; 0.3% a.i. in paint
  Surface score of wooden sticks treated with paint formulation, A. pullulans: 1 (Trace of growth of up to 1% coverage of the test inoculated area)
  Surface score of wooden sticks treated with paint formulation, A. versicolor: 1 (Trace of growth of up to 1% coverage of the test inoculated area)
  Surface score of wooden sticks treated with paint formulation, C. cladosporioides: 1 (Trace of growth of up to 1% coverage of the test inoculated area)
  Surface score of wooden sticks treated with paint formulation, P. purpurogenum: 2 (Growth covering between 1 and 10% of the inoculated test area)
  Surface score of wooden sticks treated with paint formulation, P. violacea: 3 (Growth covering between 10 and 30% of the inoculated test area)
  Surface score of wooden sticks treated with paint formulation, R rubra (y): 1 (Trace of growth of up to 1% coverage of the test inoculated area)
  Surface score of wooden sticks treated with paint formulation, S. chartarum: 2 (Growth covering between 1 and 10% of the inoculated test area)
  Surface score of wooden sticks treated with paint formulation, U. atrum: 3 (Growth covering between 10 and 30% of the inoculated test area)
[11]; 0.15% in water-based paint
  Surface score in a paint formulation in a mold cabinet test, 6 weeks: 1.5
  Surface score in a paint formulation in a mold cabinet test, 12 weeks: 3.5
[11]; 0.3% in water-based paint
  Surface score in a paint formulation in a mold cabinet test, 6 weeks: 0.5
  Surface score in a paint formulation in a mold cabinet test, 12 weeks: 3.0
